These results are taken from paper PMC8453901, “GLPG1205, a GPR84 Modulator: Safety, Pharmacokinetics, and Pharmacodynamics in Healthy Subjects” (Clinical Pharmacology in Drug Development, 2021).

“Also recorded” adds a separate entry of the source.

In data set [1] the test system is CYP3A4. The data set can be described thus: CYP3A4 induction by 6β-OH-cortisol/cortisol ratio in urine. The format is in vivo, human. The note with it: 50 mg, 100 mg and 200/150 mg once daily; days -1 and 13. The protocol: The potential of CYP3A4 induction was assessed by means of the ratio of 6β‐OH‐cortisol to cortisol in urine.[10], [11], [12], [13], [14] Cortisol concentrations in urine were determined by using a radioimmunoassay method based on competition between labeled antigens and antigens on the specific sites of the antiserum coated on the tubes. At the end of the incubation period, the liquid in the tubes was removed by aspiration and the radioactivity (^125I‐cortisol) was measured using a gamma counter (Packard Cobra II auto‐gamma counter; Packard Instrument Co Inc, Meriden, Connecticut). […] The best curve was determined by the polynomial second‐order equation. The limit of quantification of the cortisol assay for the urine samples was set at 10 ng/mL.
6β‐OH‐cortisol concentrations in urine were determined by using a 2‐step, quantitative competitive enzyme immunoassay technique. […] The calibration equation was computed using SoftMax Pro software (Molecular Devices, Sunnyvale, California) by plotting the log of 6β‐OH‐cortisol concentrations versus the A/Ao (when A was standard or sample 6β‐OH‐cortisol absorbance and Ao was the standard 0 absorbance). The best line was determined by using the 4‐parameter logistic model. The limit of quantification of the 6β‐OH‐cortisol assay for the urine samples was set at 50 pg/mL. […]

The test system of data set [2] is CYP2C9. Details: method as in data on file at Galapagos. As to conditions: in vitro; ref data on file at Galapagos; cited from earlier work.
The test system of data set [3] is CYP2C19. Details: method as in data on file at Galapagos, 8, 9. As to conditions: 100 mg once daily, healthy male subjects; ref data on file at Galapagos, 8, 9; cited from earlier work.

Consider `O=c1nc(OC[C@@H]2COCCO2)cc2n1CCc1cc(C#CC3CC3)ccc1-2` [GLPG1205, 9‐cyclopropylethynyl‐2‐((S)‐1‐[1,4]dioxan‐2‐ylmethoxy)‐6,7‐dihydropyrimido[6,1‐a]isoquinolin‐4‐one], for which, in data set [1], the “6β‐OH‐cortisol/cortisol ratio in urine” value was “No significant day and dose effects; also recorded: did not impact”. Further, in data set [2], the “inhibition of CYP2C9” value is listed as “weak inhibition”. For the same compound, in data set [3], the “effect on exposure of CYP2C19” value was “did not affect the exposure”.
